Test results from ChEMBL document CHEMBL1772979, “SAR studies on a series of N-benzyl-4-heteroaryl-1-(phenylsulfonyl)piperazine-2-carboxamides: potent inhibitors of the polymerase enzyme (NS5B) of the hepatitis C virus” (Bioorg Med Chem Lett, 2011).

Each compound was assayed on Hepatitis C virus (assay: Antiviral activity against Hepatitis C virus subtype 1a by cell based replicon assay). Settings: not given; call rule not given here.
Format: functional, organism-based, Hepacivirus hominis

SMILES	EC50
CCc1ccc(S(=O)(=O)N2CCN(c3cc(OC)nc(OC)n3)CC2C(=O)NCC2CC2)cc1 (racemic)	Not Active
COc1cc(N2CCN(S(=O)(=O)c3cccc(-c4ccc(F)cc4)c3)C(C(=O)NCc3ccc(OC(F)(F)F)cc3)C2)nc(OC)n1 (racemic)	Not Active
COc1cc(N2CCN(S(=O)(=O)c3ccccc3)C(C(=O)NCc3ccc(OC(F)(F)F)cc3)C2)nc(OC)n1 (racemic)	Not Active
O=C(O)c1ccc(N2CCN(S(=O)(=O)c3ccc(OC(F)(F)F)cc3)C(C(=O)NCc3ccc(OC(F)(F)F)cc3)C2)nn1 (racemic)	Not Active

Other lines, results leading:

EC50	SMILES
Not Active	COc1cc(N2CCN(S(=O)(=O)c3ccc(F)cc3)C(C(=O)NCc3ccc(OC(F)(F)F)cc3)C2)nc(OC)n1 (racemic)
Not Active	COc1cc(N2CCN(S(=O)(=O)C3CCCCC3)C(C(=O)NCc3ccc(OC(F)(F)F)cc3)C2)nc(OC)n1 (racemic)
Not Active	COc1cc(N2CCN(S(=O)(=O)c3ccccc3F)C(C(=O)NCc3ccc(OC(F)(F)F)cc3)C2)nc(OC)n1 (racemic)
Not Active	O=C(O)c1cnc(N2CCN(S(=O)(=O)c3ccc(OC(F)(F)F)cc3)C(C(=O)NCc3ccc(OC(F)(F)F)cc3)C2)cn1 (racemic)
Not Active	CCc1ccc(S(=O)(=O)N2CCN(c3cc(OC)nc(OC)n3)CC2C(=O)NCc2ccccc2)cc1 (racemic)

Same assay, conditions: Hepatitis C virus, subtype 1a; read-out: EC50

SMILES	EC50
CCc1ccc(S(=O)(=O)N2CCN(c3cc(OC)nc(OC)n3)CC2C(=O)NCc2ccc(OC)c(OC)c2)cc1 (racemic)	14.6 µM
COC(=O)c1cnc(N2CCN(S(=O)(=O)c3ccc(OC(F)(F)F)cc3)C(C(=O)NCc3ccc(OC(F)(F)F)cc3)C2)cn1 (racemic)	1.6 µM
CCc1ccc(S(=O)(=O)N2CCN(c3cc(OC)nc(OC)n3)CC2C(=O)NCc2ccc(Cl)cc2Cl)cc1 (racemic)	> 50 µM
COc1cc(N2CCN(S(=O)(=O)c3cccc(OC(F)(F)F)c3)C(C(=O)NCc3ccc(OC(F)(F)F)cc3)C2)nc(OC)n1 (racemic)	58 µM
COc1cc(N2CCN(S(=O)(=O)c3cccc(C(F)(F)F)c3)C(C(=O)NCc3ccc(OC(F)(F)F)cc3)C2)nc(OC)n1 (racemic)	53 µM
COc1cc(N2CCN(S(=O)(=O)c3ccc(C(F)(F)F)cc3)C(C(=O)NCc3ccc(OC(F)(F)F)cc3)C2)nc(OC)n1 (racemic)	13 µM

Next, values leading:

EC50	SMILES
2.23 µM	CNC(=O)c1cnc(N2CCN(S(=O)(=O)c3ccc(OC(F)(F)F)cc3)C(C(=O)NCc3ccc(OC(F)(F)F)cc3)C2)cn1 (racemic)
9.2 µM	CCc1ccc(S(=O)(=O)N2CCN(c3cc(OC)nc(OC)n3)CC2C(=O)NCc2ccc(OC(F)(F)F)cc2)cc1 (racemic)
47 µM	CCc1ccc(S(=O)(=O)N2CCN(c3cc(OC)nc(OC)n3)CC2C(=O)NCc2ccc(-c3cccs3)cc2)cc1 (racemic)
0.33 µM	CNC(=O)c1ccc(N2CCN(S(=O)(=O)c3ccc(OC(F)(F)F)cc3)C(C(=O)NCc3ccc(OC(F)(F)F)cc3)C2)nn1 (racemic)

The compounds below were run on Hepatitis C virus (assay: Antiviral activity against Hepatitis C virus subtype 1b by cell based replicon assay). Settings: not given.
Format: functional, organism-based, Hepacivirus hominis, genotype 1b

SMILES	EC50
CCc1ccc(S(=O)(=O)N2CCN(c3cc(OC)nc(OC)n3)CC2C(=O)NCC2CC2)cc1 (racemic)	Not Active
COc1cc(N2CCN(S(=O)(=O)c3cccc(-c4ccc(F)cc4)c3)C(C(=O)NCc3ccc(OC(F)(F)F)cc3)C2)nc(OC)n1 (racemic)	Not Active
O=C(O)c1ccc(N2CCN(S(=O)(=O)c3ccc(OC(F)(F)F)cc3)C(C(=O)NCc3ccc(OC(F)(F)F)cc3)C2)nn1 (racemic)	Not Active

The remaining lines, values ahead:

EC50	SMILES
Not Active	COc1cc(N2CCN(S(=O)(=O)C3CCCCC3)C(C(=O)NCc3ccc(OC(F)(F)F)cc3)C2)nc(OC)n1 (racemic)
Not Active	COc1cc(N2CCN(S(=O)(=O)c3ccccc3F)C(C(=O)NCc3ccc(OC(F)(F)F)cc3)C2)nc(OC)n1 (racemic)
Not Active	O=C(O)c1cnc(N2CCN(S(=O)(=O)c3ccc(OC(F)(F)F)cc3)C(C(=O)NCc3ccc(OC(F)(F)F)cc3)C2)cn1 (racemic)

Same assay, conditions: Hepatitis C virus, genotype 1b; read-out: EC50

SMILES	EC50
CCc1ccc(S(=O)(=O)N2CCN(c3cc(OC)nc(OC)n3)CC2C(=O)NCc2ccc(OC)c(OC)c2)cc1 (racemic)	900 nM
COC(=O)c1cnc(N2CCN(S(=O)(=O)c3ccc(OC(F)(F)F)cc3)C(C(=O)NCc3ccc(OC(F)(F)F)cc3)C2)cn1 (racemic)	140 nM
CCc1ccc(S(=O)(=O)N2CCN(c3cc(OC)nc(OC)n3)CC2C(=O)NCc2ccc(Cl)cc2Cl)cc1 (racemic)	2400 nM
COc1cc(N2CCN(S(=O)(=O)c3cccc(OC(F)(F)F)c3)C(C(=O)NCc3ccc(OC(F)(F)F)cc3)C2)nc(OC)n1 (racemic)	5300 nM
COc1cc(N2CCN(S(=O)(=O)c3cccc(C(F)(F)F)c3)C(C(=O)NCc3ccc(OC(F)(F)F)cc3)C2)nc(OC)n1 (racemic)	6200 nM
COc1cc(N2CCN(S(=O)(=O)c3ccc(C(F)(F)F)cc3)C(C(=O)NCc3ccc(OC(F)(F)F)cc3)C2)nc(OC)n1 (racemic)	1200 nM
COc1cc(N2CCN(S(=O)(=O)c3ccccc3)C(C(=O)NCc3ccc(OC(F)(F)F)cc3)C2)nc(OC)n1 (racemic)	20300 nM

The next lines start with the values.

EC50	SMILES
220 nM	CNC(=O)c1cnc(N2CCN(S(=O)(=O)c3ccc(OC(F)(F)F)cc3)C(C(=O)NCc3ccc(OC(F)(F)F)cc3)C2)cn1 (racemic)
8100 nM	COc1cc(N2CCN(S(=O)(=O)c3ccc(F)cc3)C(C(=O)NCc3ccc(OC(F)(F)F)cc3)C2)nc(OC)n1 (racemic)
500 nM	CCc1ccc(S(=O)(=O)N2CCN(c3cc(OC)nc(OC)n3)CC2C(=O)NCc2ccc(OC(F)(F)F)cc2)cc1 (racemic)
1200 nM	CCc1ccc(S(=O)(=O)N2CCN(c3cc(OC)nc(OC)n3)CC2C(=O)NCc2ccc(-c3cccs3)cc2)cc1 (racemic)
20 nM	CNC(=O)c1ccc(N2CCN(S(=O)(=O)c3ccc(OC(F)(F)F)cc3)C(C(=O)NCc3ccc(OC(F)(F)F)cc3)C2)nn1 (racemic)
8800 nM	CCc1ccc(S(=O)(=O)N2CCN(c3cc(OC)nc(OC)n3)CC2C(=O)NCc2ccccc2)cc1 (racemic)
